According to publication PMC12218921, “An adaptive peptide-binding site in ubiquitin receptor hRpn13 revealed by structural studies” (Nature Communications, 2025):
No end group written: not given here.

Assays:
[1] = test system: hRpn13 F76 arginine substitution; settings: cited from earlier work
hRpn13_ΔMTT [2] = target: T1, hRpn13_ΔMTT (Homo sapiens, UniProt Q16186); assay: Competition assay by fluorescence polarization (unlabeled peptide vs TAMRA-hRpn2 (940–953)); format: binding
T1 construct: recombinant plasmid of hRpn13 Pru (1–150) cloned into the pRSET vector; GST (N, cleaved yes); residual Gly-Ser (^cG-^dS) left after cleavage; made in house; host or cells: Escherichia coli BL21 (DE3); pGEX-4T-1 plasmid synthesized by GenScript (Addgene 237412)
T1 sequence (Q16186 4-150, stated change not applied): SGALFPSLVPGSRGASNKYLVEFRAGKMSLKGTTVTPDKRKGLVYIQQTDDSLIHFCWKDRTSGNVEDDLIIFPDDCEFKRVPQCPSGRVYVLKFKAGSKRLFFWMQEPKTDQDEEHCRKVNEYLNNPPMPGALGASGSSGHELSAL

hRpn13_ΔMTT [3] = target: T1, hRpn13_ΔMTT; assay: 1H-15N HSQC NMR titration / chemical shift perturbation (CSP), 0.1 mM 15N-labeled hRpn13_ΔMTT with unlabeled peptide; format: binding
Method: The similar spectral effects by adding ENT or ENT_M1S is readily apparent by quantifying and plotting the shifting across the Pru amino acid sequence (Supplementary Fig. 10b, c).
All ^1H-^15N HSQC experiments were acquired on samples dissolved in NMR buffer (20 mM sodium phosphate, pH 6.5, 50 mM NaCl, 1 mM TCEP, 10% D2O) unless specified, in which case 2 mM DTT replaced TCEP. The samples were purified in DTT-containing buffer and then exchanged into NMR buffer by using Zeba Protein Desalting columns (Thermo Fisher Scientific). The pH was measured and adjusted to 6.5. All NMR experiments were performed at 25 °C on a Bruker Advance 600 MHz spectrometer equipped with a cryogenically cooled probe. The data were processed by NMRpipe[46] (version 11.5) and spectra visualized and analyzed with NMR-FAM-SPARKY[47] (version 3.190) by using previous chemical shift assignments[12],[23] and NMRbox[48]. The amide nitrogen and hydrogen chemical shift perturbations (CSP) were mapped for each amino acid according to Eq. 1.1 CSP=0.2ΔδN2+ΔδH2
ΔδH, change in amide proton value (in parts per million); ΔδN, change in amide nitrogen value (in parts per million).
Supplementary Figure 9: 2D NMR experiments indicate ENT binding to hRpn13 Pru. a) ^1H-^15N HSQC spectrum of 0.1 mM ^15N-labeled hRpn13 (1-150, black) or hRpn13_ΔMTT (green). Select residues are labeled with amino acids in the Pru helix, proteasome binding region, and termini in blue, purple, and orange, respectively. Arrows indicate direction of shifting. b, c) ^1H-^15N HSQC spectra of 0.1 mM of ^15N-labeled hRpn13_ΔMTT alone (black) or with ENT present at equimolar (red), 2-fold (orange), 5-fold (yellow), 10-fold (green), 15-fold (blue), or 20-fold (purple) molar excess. […] All spectra were acquired at 600 MHz and 25°C in 20 mM sodium phosphate, pH 6.5, 100 mM NaCl, 1 mM TCEP, 10% D2O. ppm, part per million.

## ubiquitin
[1]
  hRpn13 binding to ubiquitin on arginine substitution of F76: abolishes hRpn13 binding to ubiquitin

## GPGSMTT [ENT]
hRpn13_ΔMTT [2]; 80 nM hRpn13_ΔMTT, 10 nM TAMRA-hRpn2 (940–953), N = 6
  concentration required to completely decrease the FP to background levels: > 3 mM
hRpn13_ΔMTT [2]; FP competition
  concentrations at which peptides can displace hRpn2 from hRpn13: > 0.5 mM
hRpn13_ΔMTT [2]; peer review file, FP competition with TAMRA-hRpn2 (940-953), read-out: IC50 (FP decreased to background levels)
  IC50: > 3 mM
hRpn13_ΔMTT [3]; 100 μM 15N-hRpn13_ΔMTT, peptide up to 20-fold molar excess, pH 6.5, 25 °C, 600 MHz
  HSQC signal shifting of hRpn13_ΔMTT: small concentration-dependent shifting of the same (T114, D117-E119, C121) and additional (W61, M109, H120, H145) hRpn13 amide signals
hRpn13_ΔMTT [3]; 100 μM 15N-hRpn13_ΔMTT, varying molar ratios
  strength of binding to hRpn13 Pru (by HSQC): weak interaction between ENT and hRpn13 Pru
hRpn13_ΔMTT [3]; 20-fold molar excess peptide
  CSP A6: 0.001342
  CSP A28: 0.00743
  CSP A100: 0.002049
  CSP A136: 0.002049
  CSP A139: 0.0004472
  CSP A149: 0.003493
  CSP C60: 0.003715
  CSP C80: 0.002049
  CSP C88: 0.002449
  CSP C121: 0.02471
  CSP D41: 0
  CSP D53: 0.002049
  CSP D54: 0.001789
  CSP D63: 0.004494
  CSP D71: 0.007
  CSP D72: 0.007759
  CSP D78: 0.005899
  CSP D79: 0.002864
  CSP D115: 0.009859
  CSP D117: 0.033
  CSP E25: 0.009859
  CSP E70: 0.005459
  CSP E81: 0.001342
  CSP E111: 0.01601
  CSP E118: 0.06429
  CSP E119: 0.03311
  CSP E146: 0.01203
  CSP F8: 0.002049
  CSP F26: 0.0264
  CSP F59: 0.002864
  CSP F76: 0.007603
  CSP F82: 0.004219
  CSP F98: 0.009391
  CSP F106: 0.002864
  CSP F107: 0.001789
  CSP G5: 0
  CSP G17: 0.002683
  CSP G29: 0.003286
  CSP G45: 0.006148
  CSP G67: 0.001342
  CSP G91: 0.002049
  CSP G101: 0.004669
  CSP G135: 0.002449
  CSP G138: 0.001095
  CSP G141: 0.002049
  CSP G144: 0.001342
  CSP H58: 0.007057
  CSP H120: 0.07737
  CSP H145: 0.06834
  CSP I49: 0.002408
  CSP I57: 0.004025
  CSP I75: 0.001673
  CSP K21: 0.0004472
  CSP K30: 0.01021
  CSP K34: 0.002408
  CSP K42: 0.00502
  CSP K62: 0.001342
  CSP K83: 0.005367
  CSP K97: 0.002449
  CSP K99: 0.001095
  CSP K103: 0.003131
  CSP K113: 0.008729
  CSP K123: 0.01565
  CSP L7: 0.002408
  CSP L11: 0.001342
  CSP L23: 0.004382
  CSP L33: 0.002
  CSP L46: 0.004899
  CSP L56: 0.002236
  CSP L73: 0.003493
  CSP L96: 0.001095
  CSP L105: 0.006017
  CSP L128: 0.003
  CSP L137: 0.002449
  CSP L147: 0.01114
  CSP L150: 0.003493
  CSP M31: 0.003131
  CSP M109: 0.01978
  CSP M133: 0.001095
  CSP N20: 0.002049
  CSP N68: 0.001095
  CSP N125: 0.002049
  CSP N129: 0.004025
  CSP N130: 0.001673
  CSP Q50: 0.003742
  CSP Q51: 0.004025
  CSP Q87: 0.003742
  CSP R16: 0.001095
  CSP R27: 0.001095
  CSP R43: 0.002191
  CSP R64: 0.004025
  CSP R92 backbone: 0.003131
  CSP R92 sidechain: 0.016
  CSP R104: 0.008112
  CSP R122: 0.01435
  CSP S4: 0.009602
  CSP S10: 0.001342
  CSP S15: 0.001342
  CSP S19: 0.001342
  CSP S32: 0.001342
  CSP S55: 0.002864
  CSP S66: 0.004472
  CSP S102: 0.002049
  CSP S140: 0.001342
  CSP S142: 0.002049
  CSP S143: 0.002236
  CSP S148: 0.003286
  CSP T36: 0.00882
  CSP T37: 0.003578
  CSP T39: 0.001342
  CSP T52: 0
  CSP T65: 0.001342
  CSP T114: 0.02379
  CSP V12: 0.002049
  CSP V24: 0.003715
  CSP V47: 0.008497
  CSP V69: 0.004494
  CSP V93: 0.004494
  CSP V95: 0.002683
  CSP V124: 0.0139
  CSP W61: 0.0278
  CSP W108: 0.005899
  CSP Y22: 0.01048
  CSP Y48: 0.003715
  CSP Y94: 0.00502
  CSP Y127: 0.00531
hRpn13_ΔMTT [3]; e.g. F76 and D78 amide signals
  effect at Pru-B-binding surface (HSQC): No effects were observed at the Pru-B-binding surface
